In patent US8513232B2, “Substituted spirocyclic piperidine derivatives as histamine-3 (H3) receptor ligands” (Cephalon, Inc., priority 2008, dated 2013):

Experiments:
[1] = target: T1, human H3 receptor (Homo sapiens, UniProt Q9Y5N1); assay: Human H3 radioligand binding ([3H]-N-alpha-methylhistamine, SPA); details: human H3 binding, Table D; read-out: Human H3 Ki
T1 construct: expressed in transfected cells
In short: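 Compounds (0.01 nM-30 μM) competed with approximately 1 nM [3H]-N-alpha-methylhistamine for human H3 receptor in membranes of stably transfected CHO cells, 10 μg protein per well, in Tris-HCl pH 7.4/MgCl2/BSA buffer for 4 h at room temperature. Bound radioligand measured by scintillation proximity; 10 μM clobenpropit gave non-specific binding.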

[2] = target: T2, rat histamine H3 receptor (Rattus norvegicus, UniProt Q9QYN8); assay: Rat H3 radioligand binding ([3H]-N-alpha-methylhistamine, SPA); details: rat H3 binding, Table D; read-out: Rat H3 Ki
T2 construct: encoding the entire 445-amino-acid rat histamine H3 receptor; expressed in transfected cells; membrane preparation
In short: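 SPA-bead binding assay using [3H]-N-alpha-methylhistamine (approximately 1 nM final) with test compounds from 0.01 nM to 30 μM. Rat H3 receptor membranes came from stably transfected CHO-A3 cells; incubation ran 4 h at room temperature, in the dark, in Tris pH 7.4 buffer with MgCl2 and BSA. Clobenpropit (10 μM) gave non-specific binding.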

T2 sequence (Q9QYN8 whole entry): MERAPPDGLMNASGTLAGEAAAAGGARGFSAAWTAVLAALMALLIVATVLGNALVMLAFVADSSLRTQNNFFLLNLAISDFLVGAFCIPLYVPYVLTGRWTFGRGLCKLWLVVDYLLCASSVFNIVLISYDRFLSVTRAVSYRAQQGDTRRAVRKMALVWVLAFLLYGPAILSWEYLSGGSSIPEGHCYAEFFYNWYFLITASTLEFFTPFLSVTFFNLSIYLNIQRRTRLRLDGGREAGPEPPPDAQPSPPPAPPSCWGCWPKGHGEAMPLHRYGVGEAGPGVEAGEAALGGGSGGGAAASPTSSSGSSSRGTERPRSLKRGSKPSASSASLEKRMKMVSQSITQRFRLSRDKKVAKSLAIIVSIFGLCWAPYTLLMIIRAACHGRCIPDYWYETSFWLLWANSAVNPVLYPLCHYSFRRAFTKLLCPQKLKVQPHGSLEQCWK
T1 sequence (Q9Y5N1 whole entry): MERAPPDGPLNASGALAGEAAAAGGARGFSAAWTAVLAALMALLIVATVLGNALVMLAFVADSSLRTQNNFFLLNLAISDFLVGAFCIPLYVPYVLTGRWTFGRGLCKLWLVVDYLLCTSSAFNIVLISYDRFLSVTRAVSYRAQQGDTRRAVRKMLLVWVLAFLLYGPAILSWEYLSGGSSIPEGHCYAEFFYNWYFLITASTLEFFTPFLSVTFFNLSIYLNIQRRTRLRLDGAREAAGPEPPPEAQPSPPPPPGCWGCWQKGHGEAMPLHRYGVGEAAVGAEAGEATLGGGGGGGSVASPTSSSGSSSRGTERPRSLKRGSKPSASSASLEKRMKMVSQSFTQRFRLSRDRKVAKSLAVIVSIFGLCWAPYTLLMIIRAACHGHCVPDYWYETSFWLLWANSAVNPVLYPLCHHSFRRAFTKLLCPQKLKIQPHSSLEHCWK

Ki [1] | Ki [2] | melting point | Compound
< 200 nM | < 200 nM | 180 to 182 °C | CN(C)C(=O)CCc1ccc2c(c1)CCC1(CCN(C3CCC3)CC1)O2 [Example 603]
< 200 nM | < 200 nM | 164 to 166 °C | NC(=O)c1ccc(-c2ccc3c(c2)COC2(CCN(C4CCC4)CC2)O3)cc1Cl [Example 604]
< 200 nM | < 200 nM | 189 to 191 °C | O=C(N[C@@H]1CCOC1)c1ccc(-c2ccc3c(c2)COC2(CCN(C4CCC4)CC2)O3)cc1Cl [Example 605]
< 200 nM | < 200 nM | 209 to 211 °C | O=C(NC1CCOCC1)c1ccc(-c2ccc3c(c2)COC2(CCN(C4CCC4)CC2)O3)cc1Cl [Example 606]
< 200 nM | < 200 nM | 186 to 188 °C | CNC(=O)c1cc(-c2ccc3c(c2)COC2(CCN(C4CCC4)CC2)O3)cs1 [Example 607]
< 200 nM | < 200 nM | 142 to 145 °C | COc1ncc(-c2ccc3c(c2)COC2(CCN(C4CCC4)CC2)O3)cc1C [Example 610]
< 200 nM | < 200 nM | 131 to 133 °C | COC(=O)/C=C/c1ccc2c(c1)COC1(CCN(C3CCC3)CC1)O2 [Example 618]
< 200 nM | < 200 nM | 120 to 123 °C | CN(C)C(=O)c1cnc(COc2ccc3c(c2)CCC2(CCN(C4CCC4)CC2)O3)cn1 [Example 619]
< 200 nM | < 200 nM | 198 to 201 °C | CS(=O)(=O)c1ccc(-c2ccc3c(c2)COC2(CCN(C4CCC4)CC2)O3)cc1Cl [Example 622]
< 200 nM | < 200 nM | 165 to 167 °C | CN(C)C(=O)c1cc(COc2ccc3c(c2)CCC2(CCN(C4CCC4)CC2)O3)ccn1 [Example 623]
< 200 nM | < 200 nM | 157 to 159 °C | CCS(=O)(=O)c1ccc(-c2ccc3c(c2)COC2(CCN(C4CCC4)CC2)O3)cc1Cl [Example 625]
< 200 nM | < 200 nM | 125 to 126.2 °C | Cc1noc(C2CCN(c3ccc4c(c3)COC3(CCN(C5CCC5)CC3)O4)CC2)n1 [Example 628]
< 200 nM | < 200 nM | 92.3 to 94.2 °C | COCC1CCN(c2ccc3c(c2)COC2(CCN(C4CCC4)CC2)O3)CC1 [Example 632]
< 200 nM | < 200 nM | 168 to 169 °C | OCc1ccc(-c2ccc3c(c2)COC2(CCN(C4CCC4)CC2)O3)s1 [Example 641]
< 200 nM | < 200 nM | 161 to 162 °C | O=C(c1ccc(-c2ccc3c(c2)COC2(CCN(C4CCC4)CC2)O3)cc1F)N1CCOCC1 [Example 642]
< 200 nM | < 200 nM | 166 to 167 °C | O=C(c1ccc(-c2ccc3c(c2)COC2(CCN(C4CCC4)CC2)O3)s1)N1CCOCC1 [Example 643]
< 200 nM | 200 to 1000 nM | 167 to 169 °C | O=C(CCc1ccc2c(c1)COC1(CCN(C3CCC3)CC1)O2)NC1CCOCC1 [Example 645]
< 200 nM | < 200 nM | 158 to 160 °C | O=C(NC1CCOCC1)c1cccc(COc2ccc3c(c2)CCC2(CCN(C4CCC4)CC2)O3)c1 [Example 646]
< 200 nM | < 200 nM | 147.7 to 149.8 °C | CCS(=O)(=O)C1CCN(c2ccc3c(c2)COC2(CCN(C4CCC4)CC2)O3)CC1 [Example 648]
< 200 nM | < 200 nM | 123 to 126 °C | COc1ccc(-c2ccc3c(c2)COC2(CCN(C4CCC4)CC2)O3)nc1 [Example 650]
< 200 nM | < 200 nM | 217 to 220 °C | Cc1cc(=O)[nH]cc1-c1ccc2c(c1)COC1(CCN(C3CCC3)CC1)O2 [Example 651]
< 200 nM | < 200 nM | 159 to 161 °C | CS(=O)(=O)c1ccc(-c2ccc3c(c2)COC2(CCN(C4CCC4)CC2)O3)s1 [Example 652]
< 200 nM | < 200 nM | 86 to 88 °C | CNC(=O)CCc1ccc2c(c1)COC1(CCN(C3CCC3)CC1)O2 [Example 653]
< 200 nM | < 200 nM | 189 to 192 °C | CN(C)S(=O)(=O)c1ccc(-c2ccc3c(c2)COC2(CCN(C4CCC4)CC2)O3)s1 [Example 654]

Second part, the compound before the results:

Compound | Ki [1] | Ki [2] | melting point
CN(C)C(=O)c1ccc(-c2ccc3c(c2)COC2(CCN(C4CCC4)CC2)O3)cc1Cl [Example 608] | < 200 nM | < 200 nM | 80 to 82 °C
Cc1cc(-c2ccc3c(c2)COC2(CCN(C4CCC4)CC2)O3)cnc1O [Example 609] | < 200 nM | < 200 nM | 95.2 to 97 °C
O=C(N[C@H]1CCOC1)c1ccc(-c2ccc3c(c2)COC2(CCN(C4CCC4)CC2)O3)cc1Cl [Example 611] | < 200 nM | < 200 nM | 185 to 187 °C
CN(C)C(=O)C1CCCN(c2ccc3c(c2)COC2(CCN(C4CCC4)CC2)O3)C1 (stereo not drawn) [Example 612] | < 200 nM | < 200 nM | 51.2 to 54.2 °C
COCCNC(=O)C1CCCN(c2ccc3c(c2)COC2(CCN(C4CCC4)CC2)O3)C1 (stereo not drawn) [Example 613] | < 200 nM | < 200 nM | 55.4 to 57.3 °C
O=C(O)C1CCCN(c2ccc3c(c2)COC2(CCN(C4CCC4)CC2)O3)C1 (stereo not drawn) [Example 614] | 200 to 1000 nM | 200 to 1000 nM | 84 to 86.4 °C
Cc1nnc(COc2ccc3c(c2)CCC2(CCN(C4CCC4)CC2)O3)o1 [Example 615] | < 200 nM | < 200 nM | 97 to 98 °C
Cc1noc(COc2ccc3c(c2)CCC2(CCN(C4CCC4)CC2)O3)n1 [Example 616] | < 200 nM | < 200 nM | 95 to 96 °C
CS(=O)(=O)c1ccc(COc2ccc3c(c2)CCC2(CCN(C4CCC4)CC2)O3)cc1 [Example 617] | < 200 nM | < 200 nM | 142 to 146 °C
CNS(=O)(=O)c1ccc(-c2ccc3c(c2)COC2(CCN(C4CCC4)CC2)O3)cc1Cl [Example 620] | < 200 nM | < 200 nM | 127 to 129 °C
CN(C)S(=O)(=O)c1ccc(-c2ccc3c(c2)COC2(CCN(C4CCC4)CC2)O3)cc1Cl [Example 621] | < 200 nM | < 200 nM | 97 to 99 °C
COc1cc(-c2ccc3c(c2)COC2(CCN(C4CCC4)CC2)O3)ccc1C(=O)O [Example 624] | < 200 nM | 200 to 1000 nM | 173 to 175 °C
CCOCC1CCN(c2ccc3c(c2)CCC2(CCN(C4CCC4)CC2)O3)CC1 [Example 626] | < 200 nM | < 200 nM | 101.6 to 103.2 °C
CCOCC1CCN(c2ccc3c(c2)COC2(CCN(C4CCC4)CC2)O3)CC1 [Example 627] | < 200 nM | < 200 nM | 85.2 to 86.5 °C
COc1ncc(-c2ccc3c(c2)COC2(CCN(C4CCC4)CC2)O3)cc1Cl [Example 629] | < 200 nM | < 200 nM | 174 to 175 °C
COC(=O)CCc1ccc2c(c1)COC1(CCN(C3CCC3)CC1)O2 [Example 630] | < 200 nM | < 200 nM | 66 to 68 °C
O=C(NC1CCOCC1)c1ccc(-c2ccc3c(c2)COC2(CCN(C4CCC4)CC2)O3)s1 [Example 631] | < 200 nM | < 200 nM | 209 to 211 °C
CNC(=O)c1ccc(-c2ccc3c(c2)COC2(CCN(C4CCC4)CC2)O3)cc1OC [Example 633] | < 200 nM | < 200 nM | 175 to 177 °C
COCCNC(=O)c1ccc(-c2ccc3c(c2)COC2(CCN(C4CCC4)CC2)O3)cc1OC [Example 634] | < 200 nM | < 200 nM | 50 to 52 °C
COc1cc(-c2ccc3c(c2)COC2(CCN(C4CCC4)CC2)O3)ccc1C(=O)NC1CCOCC1 [Example 635] | < 200 nM | < 200 nM | 86 to 88 °C
COc1cc(-c2ccc3c(c2)COC2(CCN(C4CCC4)CC2)O3)ccc1C(=O)N1CCOCC1 [Example 636] | < 200 nM | < 200 nM | 94 to 96 °C
CN(C)C(=O)c1ccc(-c2ccc3c(c2)COC2(CCN(C4CCC4)CC2)O3)nc1 [Example 638] | < 200 nM | < 200 nM | 190 to 193 °C
O=C(NC1CCOCC1)c1ccc(-c2ccc3c(c2)COC2(CCN(C4CCC4)CC2)O3)cn1 [Example 639] | < 200 nM | < 200 nM | 108 to 110 °C
O=C(NC1CCOCC1)c1ccc(-c2ccc3c(c2)COC2(CCN(C4CCC4)CC2)O3)cc1F [Example 640] | < 200 nM | < 200 nM | 165 to 167 °C
COCCNC(=O)CCc1ccc2c(c1)COC1(CCN(C3CCC3)CC1)O2 [Example 644] | < 200 nM | 200 to 1000 nM | 68 to 70 °C
O=C(NC1CCOCC1)c1ccc(COc2ccc3c(c2)CCC2(CCN(C4CCC4)CC2)O3)cc1 [Example 647] | < 200 nM | < 200 nM | 174 to 176 °C
